The data set in a line: Interaction between CDDP and ADH or hydrazine by OPDA colour reaction (FIGS. 4A-4B). The format is physicochemical. As to conditions: 6 μg CDDP, OPDA 4 mg/ml. As to the method:
The absorbance at 703 nm was determined (FIG. 4A).

One compound from patent US6694171B1, “X-ray imaging of tumors with dextran carrier of platinum compounds” (Yeda Research and Development, priority 1997, dated 2004) can be followed below.

Turning to `NNC(=O)CCCCC(=O)NN` [ADH, adipic acid dihydrazide], the “leveling-off ratio ligand:CDDP” value was found to be 20.
